Data from patent US20260159498A1, “AKT3 MODULATORS” (GEORGIAMUNE LLC, priority 2021, published 2026).
pIC50: −log10 of the molar value.

Target: T1, Akt3 (Homo sapiens, UniProt Q9Y243)
T1 construct: endogenous in cells; host or cells: human CD4+/CD45RA+/CD25- naive T cells under Treg induction conditions
Test: Akt3 inhibition activity
Assay type: cell-based

T1 sequence (Q9Y243 whole entry): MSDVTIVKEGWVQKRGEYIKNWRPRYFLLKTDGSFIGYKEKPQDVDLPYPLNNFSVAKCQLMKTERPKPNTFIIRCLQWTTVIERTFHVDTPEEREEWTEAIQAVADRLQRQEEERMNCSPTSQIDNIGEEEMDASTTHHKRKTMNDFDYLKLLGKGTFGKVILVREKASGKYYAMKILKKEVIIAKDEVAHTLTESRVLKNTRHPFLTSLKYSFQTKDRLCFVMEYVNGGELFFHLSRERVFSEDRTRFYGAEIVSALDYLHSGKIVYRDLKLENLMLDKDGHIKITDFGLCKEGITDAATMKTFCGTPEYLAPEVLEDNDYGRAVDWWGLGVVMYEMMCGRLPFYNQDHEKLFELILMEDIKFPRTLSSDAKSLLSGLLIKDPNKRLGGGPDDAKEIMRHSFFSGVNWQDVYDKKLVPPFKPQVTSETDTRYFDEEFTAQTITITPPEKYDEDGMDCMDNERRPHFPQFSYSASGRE

Cc1cc(Nc2ccc3oc(-c4cccc(Nc5ccc(F)cc5)c4)nc3c2)ccn1 [Compound 43, 2-(3-((4-fluorophenyl)amino)phenyl)-N-(2-methylpyridin-4-yl)benzo[d]oxazol-5-amine]
pIC50: > 5.30

Cc1cc(Nc2cccc(-c3nc4ccc(Nc5ccnc(C)c5)cc4o3)c2)ccn1 [Compound 42, N-(2-methylpyridin-4-yl)-2-(3-((2-methylpyridin-4-yl)amino)phenyl)benzo[d]oxazol-6-amine]
pIC50: > 5.30

O=C1c2ccc(Nc3ccncc3)cc2CN1c1cc(F)cc(Nc2ccncc2)c1 [Compound 37, 2-(3-fluoro-5-(pyridin-4-ylamino)phenyl)-5-(pyridin-4-ylamino)isoindolin-1-one]
pIC50: > 5.70

Cc1cc(Nc2ccc(-c3nc4ccc(Nc5ccnc(C)c5)cc4o3)cc2)ccn1 [Compound 41, N-(2-methylpyridin-4-yl)-2-(4-((2-methylpyridin-4-yl)amino)phenyl)benzo[d]oxazol-6-amine]
pIC50: > 5.30

O=C1c2ccc(Nc3ccncc3)c(F)c2CN1c1cccc(Nc2ccncc2)c1 [Compound 32, 4-fluoro-5-(pyridin-4-ylamino)-2-(3-(pyridin-4-ylamino)phenyl)isoindolin-1-one]
pIC50: > 5.30

Cc1cc(Nc2ccc(-c3nc4cc(Nc5ccnc(C)c5)ccc4o3)cc2)ccn1 [Compound 39, N-(2-methylpyridin-4-yl)-2-(4-((2-methylpyridin-4-yl)amino)phenyl)benzo[d]oxazol-5-amine]
pIC50: > 5.30

Cc1cc(Nc2ccncc2)cc(N2Cc3cc(Nc4ccncc4)ccc3C2=O)c1 [Compound 26, 2-(3-methyl-5-(pyridin-4-ylamino)phenyl)-5-(pyridin-4-ylamino)isoindolin-1-one]
pIC50: > 6.00

Cc1cc2c(cc1Nc1ccncc1)CN(c1cccc(Nc3ccncc3)c1)C2=O [Compound 31, 6-methyl-5-(pyridin-4-ylamino)-2-(3-(pyridin-4-ylamino)phenyl)isoindolin-1-one]
pIC50: > 5.30

Cc1cc(Nc2cccc(-c3nc4cc(Nc5ccnc(C)c5)ccc4o3)c2)ccn1 [Compound 40, N-(2-methylpyridin-4-yl)-2-(3-((2-methylpyridin-4-yl)amino)phenyl)benzo[d]oxazol-5-amine]
pIC50: > 5.70

Cc1cc(Nc2cc(C)c3c(c2)CN(c2cccc(Nc4ccncc4)c2)C3=O)ccn1 [Compound 44, 7-methyl-5-((2-methylpyridin-4-yl)amino)-2-(3-(pyridin-4-ylamino)phenyl)isoindolin-1-one]
pIC50: > 6.00

O=C1c2ccc(Nc3ccncc3)cc2CN1c1ccc(F)c(Nc2ccncc2)c1 [Compound 38, 2-(4-fluoro-3-(pyridin-4-ylamino)phenyl)-5-(pyridin-4-ylamino)isoindolin-1-one]
pIC50: > 6.00

Cc1cc(Nc2ccncc2)cc2c1C(=O)N(c1cccc(Nc3ccncc3)c1)C2 [Compound 30, 7-methyl-5-(pyridin-4-ylamino)-2-(3-(pyridin-4-ylamino)phenyl)isoindolin-1-one]
pIC50: > 6.00

O=C1c2c(F)cc(Nc3ccncc3)cc2CN1c1cccc(Nc2ccncc2)c1 [Compound 34, 7-fluoro-5-(pyridin-4-ylamino)-2-(3-(pyridin-4-ylamino)phenyl)isoindolin-1-one]
pIC50: > 5.30

Cc1cc(Nc2cccc(N3Cc4cc(Nc5ccnc(C)c5)cc(C)c4C3=O)c2)ccn1 [Compound 45, 7-methyl-5-((2-methylpyridin-4-yl)amino)-2-(3-((2-methylpyridin-4-yl)amino)phenyl)isoindolin-1-one]
pIC50: > 6.00

Cc1ccc(N2Cc3cc(Nc4ccncc4)ccc3C2=O)cc1Nc1ccncc1 [Compound 27, 2-(4-methyl-3-(pyridin-4-ylamino)phenyl)-5-(pyridin-4-ylamino)isoindolin-1-one]
pIC50: > 6.00

O=C1c2cc(F)c(Nc3ccncc3)cc2CN1c1cccc(Nc2ccncc2)c1 [Compound 33, 6-fluoro-5-(pyridin-4-ylamino)-2-(3-(pyridin-4-ylamino)phenyl)isoindolin-1-one]
pIC50: > 6.00
